Here are results for 31 compounds from patent US9944645B2, “Imidazotriazines and imidazopyrimidines as kinase inhibitors” (Incyte Holdings Corporation, priority 2006, dated 2018).

Some results are limits rather than exact numbers.

As usually defined, the IC50 is the point on the concentration scale where inhibition reaches its midpoint. A low value points to greater potency.

Sequence of c-Met kinase (h-Met; histidine-tagged c-Met catalytic domain fusion protein) (P08581 1078-1345): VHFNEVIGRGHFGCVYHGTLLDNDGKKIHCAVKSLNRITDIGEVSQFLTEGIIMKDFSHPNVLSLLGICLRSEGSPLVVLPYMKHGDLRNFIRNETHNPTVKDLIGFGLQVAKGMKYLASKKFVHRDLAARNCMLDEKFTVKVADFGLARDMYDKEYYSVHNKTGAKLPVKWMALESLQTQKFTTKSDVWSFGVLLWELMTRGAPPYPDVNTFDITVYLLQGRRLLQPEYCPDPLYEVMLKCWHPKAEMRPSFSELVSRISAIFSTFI

The experiment has as its target c-Met kinase (h-Met; histidine-tagged c-Met catalytic domain fusion protein) (Homo sapiens (Human), UniProt P08581). As to the kind of experiment: In Vitro c-Met Kinase Enzyme Assays. The class given is biochemical. To be noted: phosphorylation of poly Glu-Tyr, 5 μM ATP, 25 minutes at 30° C. As to the method: Compounds were screened in vitro for their ability to inhibit c-Met kinase activity. […] Briefly, histidine-tagged c-Met catalytic domain fusion protein (Invitrogen, #PV3143) was used for the assay. […] The reaction lasted for 25 minutes at 30° C. After the reaction was completed, the contents of the plates was discarded. Plates were then washed with TBS-T (250 μL/well, 5×) and then blocked with TBS-T containing 1% BSA for 2 hours. The contents of the plates was discarded, and 100 μL (per well) of peroxidase-labeled anti-phospho-tyrosine antibody (Sigma, #A5964) diluted (1:60,000) in 1% BSA containing TBS-T were then added and incubated for 1 hour. Plates were washed with TBS-T ([…], 5×) and followed by the color reaction using 100 μL (1:1 mixture) of H2O2 and tetramethylbenzidine (R&D Systems, #DY999). The reaction was stopped in minutes with 100 μL of 2 N H2SO4. The optical density was measured immediately using a microplate reader at 450 nm with wavelength correction at 540 nm. IC50 values were calculated with the GraphPad Prism software. The linear range (i.e., the time period over which the rate remained equivalent to the initial rate) was determined for the kinase and IC50 determinations were performed within this range.
`N#CC1(c2ccc(-c3cnc4ncc(C5(c6ccc7ncccc7c6)CC5)n4c3)cc2)CC1` [Example 64, 1-{4-[3-(1-Quinolin-6-ylcyclopropyl)imidazo[1,2-a]pyrimidin-6-yl]phenyl}cyclopropanecarbonitrile] returned an IC50 of less than 500 nM. Turning to `CN(C)S(=O)(=O)c1ccc(-c2cnc3ncc(C4(c5ccc6ncccc6c5)CC4)n3c2)cc1` [Example 65, N,N-Dimethyl-4-[3-(1-quinolin-6-ylcyclopropyl)imidazo[1,2-a]pyrimidin-6-yl]benzenesulfonamide], the IC50 was less than 500 nM.

As to `COC(=O)NCc1ccc(-c2cnc3ncc(C4(c5ccc6ncccc6c5)CC4)n3c2)cc1F` [Example 66, Methyl 2-fluoro-4-[3-(1-quinolin-6-ylcyclopropyl)imidazo[1,2-a]pyrimidin-6-yl]benzylcarbamate], the 50% inhibitory concentration (IC50) is less than 500 nM. In turn, `CN(C)C(=O)NCc1ccc(-c2cnc3ncc(C4(c5ccc6ncccc6c5)CC4)n3c2)cc1F` [Example 67, N′-2-Fluoro-4-[3-(1-quinolin-6-ylcyclopropyl)imidazo[1,2-a]pyrimidin-6-yl]benzyl-N,N-dimethylurea] came in with an IC50 of less than 500 nM. `O[C@@H]1CCN(Cc2ccc(-c3cnc4ncc(C5(c6ccc7ncccc7c6)CC5)n4c3)cc2F)C1` [Example 68, (3R)-1-{2-Fluoro-4-[3-(1-quinolin-6-ylcyclopropyl)imidazo[1,2-a]pyrimidin-6-yl]benzyl}pyrrolidin-3-ol] yielded an IC50 of less than 500 nM. The result for `Fc1cc(-c2cnc3ncc(C4(c5ccc6ncccc6c5)CC4)n3c2)ccc1Cn1cccn1` [Example 69, 6-(1-{6-[3-Fluoro-4-(1H-pyrazol-1-ylmethyl)phenyl]imidazo[1,2-a]pyrimidin-3-yl}cyclopropyl)quinoline] reads less than 500 nM. As to `O=C1OCCN1Cc1ccc(-c2cnc3ncc(C4(c5ccc6ncccc6c5)CC4)n3c2)cc1F` [Example 70, 3-{2-Fluoro-4-[3-(1-quinolin-6-ylcyclopropyl)imidazo[1,2-a]pyrimidin-6-yl]benzyl}-1,3-oxazolidin-2-one], the IC50 was less than 500 nM. Next, `CNC(=O)c1ccc(-c2cnc3ncc(Cc4ccc5nccnc5c4)n3n2)cc1F` [Example 71, 2-Fluoro-N-methyl-4-[7-(quinoxalin-6-ylmethyl)imidazo[1,2-b][1,2,4]triazin-2-yl]benzamide]: less than 500 nM. Compound `Cc1nc(-c2cnc3ncc(C4(c5ccc6ncccc6c5)CC4)n3c2)cs1` [Example 73, 6-{1-[6-(2-Methyl-1,3-thiazol-4-yl)imidazo[1,2-a]pyrimidin-3-yl]cyclopropyl}quinoline] yielded an IC50 of less than 500 nM. `c1cnc2ccc(C3(c4cnc5ncc(-c6cscn6)cn45)CC3)cc2c1` [Example 74, 6-{1-[6-(1,3-Thiazol-4-yl)imidazo[1,2-a]pyrimidin-3-yl]cyclopropyl}quinoline] returned an IC50 of less than 500 nM. Next, `CNC(=O)c1ccc(-c2cnc3ncc(C4(c5ccc6ncccc6c5)CC4)n3c2)c(F)c1` [Example 75, 3-Fluoro-N-methyl-4-[3-(1-quinolin-6-ylcyclopropyl)imidazo[1,2-a]pyrimidin-6-yl]benzamide]: less than 500 nM. The result for `O=C(c1ccc(-c2cnc3ncc(C4(c5ccc6ncccc6c5)CC4)n3c2)c(F)c1)N1CC[C@H](O)C1` [Example 76, (3S)-1-{3-Fluoro-4-[3-(1-quinolin-6-ylcyclopropyl)imidazo[1,2-a]pyrimidin-6-yl]benzoyl}pyrrolidin-3-ol] reads less than 500 nM. `CNC(=O)c1cc(F)c(-c2cnc3ncc(C4(c5ccc6ncccc6c5)CC4)n3c2)cc1F` [Example 77, 2,5-Difluoro-N-methyl-4-[3-(1-quinolin-6-ylcyclopropyl)imidazo[1,2-a]pyrimidin-6-yl]benzamide] returned an IC50 of less than 500 nM. Next, `NC(=O)c1cc(F)c(-c2cnc3ncc(C4(c5ccc6ncccc6c5)CC4)n3c2)cc1F` [Example 78, 2,5-Difluoro-4-[3-(1-quinolin-6-ylcyclopropyl)imidazo[1,2-a]pyrimidin-6-yl]benzamide]: less than 500 nM. Compound `O=C(NC1CC1)c1cc(F)c(-c2cnc3ncc(C4(c5ccc6ncccc6c5)CC4)n3c2)cc1F` [Example 79, N-Cyclopropyl-2,5-difluoro-4-[3-(1-quinolin-6-ylcyclopropyl)imidazo[1,2-a]pyrimidin-6-yl]benzamide] registered an IC50 of less than 500 nM.

In turn, `O=C(N[C@H]1CC[C@H](O)CC1)c1cc(F)c(-c2cnc3ncc(C4(c5ccc6ncccc6c5)CC4)n3c2)cc1F` [Example 80, 2,5-Difluoro-N-(trans-4-hydroxycyclohexyl)-4-[3-(1-quinolin-6-ylcyclopropyl)imidazo[1,2-a]pyrimidin-6-yl]benzamide] registered an IC50 of less than 500 nM. The result for `O=C1CCCN1c1ccc(-c2cnc3ncc(C4(c5ccc6ncccc6c5)CC4)n3c2)cc1F` [Example 81, 1-{2-Fluoro-4-[3-(1-quinolin-6-ylcyclopropyl)imidazo[1,2-a]pyrimidin-6-yl]phenyl}pyrrolidin-2-one] reads less than 2000 nM. The result for `O=C1OCCN1c1ccc(-c2cnc3ncc(C4(c5ccc6ncccc6c5)CC4)n3c2)cc1F` [Example 82, 3-{2-Fluoro-4-[3-(1-quinolin-6-ylcyclopropyl)imidazo[1,2-a]pyrimidin-6-yl]phenyl}-1,3-oxazolidin-2-one] reads less than 500 nM. The result for `CCOC(=O)N1CCC(n2cc(-c3cnc4ncc(C5(c6ccc7ncccc7c6)CC5)n4c3)cn2)CC1` [Example 83, Ethyl 4-{4-[3-(1-quinolin-6-ylcyclopropyl)imidazo[1,2-a]pyrimidin-6-yl]-1H-pyrazol-1-yl}piperidine-1-carboxylate] reads less than 500 nM; that for `CN(C)C(=O)Cn1cc(-c2ccc(-c3cnc4ncc(C5(c6ccc7ncccc7c6)CC5)n4c3)cc2F)cn1` [Example 84, 2-(4-{2-Fluoro-4-[3-(1-quinolin-6-ylcyclopropyl)imidazo[1,2-a]pyrimidin-6-yl]phenyl}-1H-pyrazol-1-yl)-N,N-dimethylacetamide], less than 500 nM. As to `CNC(=O)c1ccc(-c2ccc(-c3cnc4ncc(C5(c6ccc7ncccc7c6)CC5)n4c3)cc2F)cn1` [Example 85, 5-{2-Fluoro-4-[3-(1-quinolin-6-ylcyclopropyl)imidazo[1,2-a]pyrimidin-6-yl]phenyl}-N-methylpyridine-2-carboxamide], the IC50 is less than 500 nM. The result for `CN(C)C(=O)c1ccc(-c2ccc(-c3cnc4ncc(C5(c6ccc7ncccc7c6)CC5)n4c3)cc2F)cn1` [Example 86, 5-{2-Fluoro-4-[3-(1-quinolin-6-ylcyclopropyl)imidazo[1,2-a]pyrimidin-6-yl]phenyl}-N,N-dimethylpyridine-2-carboxamide] reads less than 500 nM.

On to `Cn1cc(-c2ccc(-c3cnc4ncc(C5(c6ccc7ncccc7c6)CC5)n4c3)cc2F)cn1` [Example 87, 6-(1-{6-[3-Fluoro-4-(1-methyl-1H-pyrazol-4-yl)phenyl]imidazo[1,2-a]pyrimidin-3-yl}cyclopropyl)quinoline], for which the IC50 was less than 500 nM. Next, `c1cnc2ccc(C3(c4cnc5ncc(-c6cnn(C7CCOC7)c6)cn45)CC3)cc2c1` (stereo not shown) [Example 88, 6-(1-{6-[1-(Tetrahydrofuran-3-yl)-1H-pyrazol-4-yl]imidazo[1,2-a]pyrimidin-3-yl}cyclopropyl)quinoline]: less than 500 nM; `c1ccc(CN2CCC(n3cc(-c4cnc5ncc(C6(c7ccc8ncccc8c7)CC6)n5c4)cn3)C2)cc1` (stereo not shown) [Example 89, 6-(1-{6-[1-(1-Benzylpyrrolidin-3-yl)-1H-pyrazol-4-yl]imidazo[1,2-a]pyrimidin-3-yl}cyclopropyl)quinoline]: less than 3000 nM; `Cn1cc(-c2cnc3ncc(C4(c5ccc6ncccc6c5)CC4)n3c2)cn1` [Example 90, 6-{1-[6-(1-Methyl-1H-pyrazol-4-yl)imidazo[1,2-a]pyrimidin-3-yl]cyclopropyl}quinoline]: less than 500 nM.

For the compound `CN(C)C(=O)N1CCC(n2cc(-c3cnc4ncc(C5(c6ccc7ncccc7c6)CC5)n4c3)cn2)CC1` [Example 91, N,N-Dimethyl-4-{4-[3-(1-quinolin-6-ylcyclopropyl)imidazo[1,2-a]pyrimidin-6-yl]-1H-pyrazol-1-yl}piperidine-1-carboxamide], the half-inhibitory concentration (IC50) was less than 500 nM. Next, `OC1CCC(n2cc(-c3cnc4ncc(C5(c6ccc7ncccc7c6)CC5)n4c3)cn2)CC1` (stereo not shown) [Example 92, 4-{4-[3-(1-Quinolin-6-ylcyclopropyl)imidazo[1,2-a]pyrimidin-6-yl]-1H-pyrazol-1-yl}cyclohexanol]: less than 500 nM; `N#CCn1cc(-c2cnc3ncc(C4(c5ccc6ncccc6c5)CC4)n3c2)cn1` [Example 93, {4-[3-(1-Quinolin-6-ylcyclopropyl)imidazo[1,2-a]pyrimidin-6-yl]-1H-pyrazol-1-yl}acetonitrile]: less than 500 nM. Next, `CNC(=O)c1ccc(-c2ccc(-c3cnc4ncc(C5(c6ccc7ncccc7c6)CC5)n4n3)cc2)cn1` [Example 94, N-Methyl-5-{4-[7-(1-quinolin-6-ylcyclopropyl)imidazo[1,2-b][1,2,4]triazin-2-yl]phenyl}pyridine-2-carboxamide]: less than 500 nM; `c1cnc2ccc(C3(c4cnc5ncc(-c6ccc(-c7cncnc7)cc6)nn45)CC3)cc2c1` [Example 95, 6-{1-[2(4-Pyrimidin-5-yl-phenyl)imidazo[1,2-b][1,2,4]triazin-7-yl]cyclopropyl}quinoline]: less than 500 nM.
